Experiments:
[1] = system: human IgE antibodies (sera of hazelnut allergic patients); test: Human IgE antibody binding to Cor a 1.0301 derived 12-meric peptide array (SPOT pepscan), probed with sera; settings: sera of 13 hazelnut allergic patients
Text: An array of overlapping peptides representing the entire sequence of major hazelnut allergen Cor a 1.0301 was synthesized and probed with the participants' sera. Sera of hazelnut allergic patients show binding to different distinct regions of Cor a 1. In particular, the region of dodecapeptides 17 to 22 is the most important region for IgE-binding.
(§1) Subsequently, these sequences were synthesized as peptide arrays on cellulose membranes according to SPOT technology. A highly specific secondary anti-human IgE antibody with minimum cross-reactivity towards cellulose membrane-bound peptides was employed.
Synthetic arrays were probed with sera randomly chosen from a well described cohort of subjects, including 21 patients with a defined allergic reaction to celery, 13 patients with a defined allergic reaction to hazelnut and 17 healthy individuals. Captured human IgE antibodies were detected by a HRP-labeled secondary antibody and binding was visualized by chemiluminescence. […]
Human IgE antibody binding studies: The spotted peptide arrays were prewashed with ethanol (1×10 min), washed with Tris-buffered saline (TBS), pH 8.0 (3×10 min), and blocked for 2 h at room temperature with blocking buffer. […] The signal intensities were recorded as Biomedical Light Units (BLU) by a Lumilmager™ (Boehringer Mannheim GmbH, Mannheim, Germany) using the LumiAnalyst software. […]

[2] = system: human IgE antibodies (sera of celery allergic patients and healthy subjects); test: Human IgE antibody binding to Api g 1.0101 derived 12-meric peptides arrayed on cellulose membrane (SPOT pepscan), probed with sera; settings: for share of celery allergic individuals whose serum IgE responded to the peptide / recognition by sera of celery allergic patients: sera of 21 celery allergic patients; for share of celery allergic individuals whose serum IgE responded to the peptide / IgE binding in sera of healthy controls / recognition by sera of celery allergic patients: diluted 1:5; for share of celery allergic individuals whose serum IgE responded to the peptide: spot positive if SInorm above membrane cut off; for number of celery allergic patients whose sera IgE antibodies bind the sequence: of 21 celery allergic patients; for IgE binding in sera of healthy controls: sera of 17 healthy subjects
Text: as §1
Synthetic arrays were probed with sera randomly chosen from a well described cohort of subjects, including 21 patients with a defined allergic reaction to celery, 13 patients with a defined allergic reaction to hazelnut and 17 healthy individuals. Captured human IgE antibodies were detected by a HRP-labeled secondary antibody and binding was visualized by chemiluminescence.
The optimal conditions for screening the sera of 21 celery allergic patients and 17 healthy controls were as follows: (i) replica of a 12-meric pepscan with a shift of three amino acids covering the Api g 1.0101 sequence (or cor a 1 sequence, respectively) synthesized on high-loaded N-CAPE membranes (640 nmol/cm2-760 nmol/cm2); (ii) prior to treatment with sera, membranes were blocked with the Sigma-Genosys blocking buffer for 2 h at room temperature; (iii) arrays were probed for 16 h at 4° C. with diluted sera (1:5) for IgE antibody binding; (iv) the captured human IgE antibodies were detected with the HRP-labeled anti-human IgE antibody (A 9667, Sigma-Aldrich) and visualized by chemiluminescence; (v) spot signal intensities were measured on a Lumilmager and processed with the LumiAnalyst software. To check the reproducibility of our screening procedure, three different peptide arrays were incubated and evaluated for each person (allergic and healthy).
Sera binding patterns could be reproduced in repeated incubation experiments. Although inter-membrane absolute spot signal intensities differed, the relative differences between spot signal intensities were nearly the same. This enabled comparison of spot signal intensities from different membranes by applying an additional normalization procedure. We defined an IgE antibody binding spot as positive if its normalized signal intensity (SInorm) was higher than the calculated cut off value of the appropriate membrane.
Peptide array synthesis: Overlapping peptide sequences (7-, 12- and 24-mer) with a shift of three amino acids) of Api g 1.0101 or cor a 1 were prepared by a MultiPep SPOT-robot (INTAVIS Bioanalytical Instruments AG, Köln, Germany). Array design was performed with the aid of the in-house software LISA 1.83. Amino acids were used as Fmoc-protected Opfp-esters with the following side protection groups: tert-butyl ester (OtBu) for E and D, tert-butyl ether (tBu) for S, T and Y, tert-butoxycarbonyl (Boc) for K and W, triphenylmethyl (Trt) for C, N, Q and H and 2,2,4,6,7-pentamethyldihydrobenzofuran-5-sulfonyl (Pbf) for R. For standard SPOT-synthesis, double couplings of 0.3 M solutions of amino acids in 1-methyl-2-pyrollidone (NMP; Fluka, Steinheim, Germany) were applied. After the final Fmoc-deprotection step and washing procedure, cleavage of the side chain protecting groups was performed according to our standard two-step deprotection protocol.
Human IgE antibody binding studies: The spotted peptide arrays were prewashed with ethanol (1×10 min), washed with Tris-buffered saline (TBS), pH 8.0 (3×10 min), and blocked for 2 h at room temperature with blocking buffer. The membranes were incubated with the patients' sera (dilution 1:5) in blocking buffer overnight at 4° C., washed with TBS, followed by a second incubation with anti-human IgE antibody (ε-chain specific) conjugated with horse radish peroxidase (HRP) (A 9667, Sigma-Aldrich, St. Louis, USA) in blocking buffer for 2 h at room temperature. To remove excess antibody the membrane was washed with TBS (3×10 min). Detection was performed with Uptilight HRP blot chemiluminescent substrate (Uptima, Interchim, Montiugon Cedex, France) with an exposure time of 2 min. […]

Sequence | share of celery allergic individuals whose serum IgE responded to the peptide [2] [%] | number of celery allergic patients whose sera IgE antibodies bind the sequence [2] | IgE binding in sera of healthy controls [2] | also measured
AGKEKASGLFKA (listed as Corylus avellana) [COR A 1. PEP47] |  |  |  | recognition by sera of hazelnut allergic patients [1]: recognized by all sera of hazelnut allergic patients
GDGGPGTLKIIT (listed as Apium graveolens) [compound 16] | 38 |  |  | 
GGPITTMTLRID (listed as Apium graveolens) [compound 21] | 29 |  |  | 
IFQGFVIDVDTV (listed as Apium graveolens) [peptide 7] | 38 | at least six | not reacting with any sera IgE antibody from healthy subjects | 
IITLPDGGPITT (listed as Apium graveolens) [compound 19] | 29 |  |  | 
NHVVLVPTADGG [peptide 34] | 29 | at least six | not reacting with any sera IgE antibody from healthy subjects | 
PHGGSILKSISK (listed as Corylus avellana) [COR A 1. PEP37] |  |  |  | recognition by sera of hazelnut allergic patients [1]: recognized by all sera of hazelnut allergic patients
PTADGGSICKTT (listed as Apium graveolens) [compound 36] | 43 |  |  | 
VLVPTADGGSIC (listed as Apium graveolens) [peptide 35] | 100 | at least six | not reacting with any sera IgE antibody from healthy subjects | spot signal intensity (BLU), ranking ([2]; average spot signal intensity, chemiluminescence, FIG. 3): highest measured spot signal intensity; IgE binding in sera of healthy controls ([2]; listed as VLVPTADGGSIC): no binding; recognition by sera of celery allergic patients [2]: recognized by the sera from all the celery allergic patients; recognition by sera of celery allergic patients ([2]; listed as VLVPTADGGSIC): recognized by all sera of celery allergic patients

Source: patent US20130101624A1, “LINEAR IGE PEPTIDE EPITOPES OF HAZELNUT ALLERGEN COR A 1 AND CELERY ANTIGEN API 1” (CHARITE UNIVERSITATSMEDIZIN BERLIN, priority 2010, published 2013)
